According to US10787462B2, “Heterocyclic compound” (TAKEDA PHARMACEUTICAL COMPANY LIMITED, priority 2015, dated 2020):

Molecular target: T1, human RIPK1 (1-375) (Homo sapiens, UniProt Q13546)
T1 construct: human RIPK1 (1-375) gene; GST; made in house; host or cells: Sf-9 insect cells
T1 sequence (Q13546 1-375): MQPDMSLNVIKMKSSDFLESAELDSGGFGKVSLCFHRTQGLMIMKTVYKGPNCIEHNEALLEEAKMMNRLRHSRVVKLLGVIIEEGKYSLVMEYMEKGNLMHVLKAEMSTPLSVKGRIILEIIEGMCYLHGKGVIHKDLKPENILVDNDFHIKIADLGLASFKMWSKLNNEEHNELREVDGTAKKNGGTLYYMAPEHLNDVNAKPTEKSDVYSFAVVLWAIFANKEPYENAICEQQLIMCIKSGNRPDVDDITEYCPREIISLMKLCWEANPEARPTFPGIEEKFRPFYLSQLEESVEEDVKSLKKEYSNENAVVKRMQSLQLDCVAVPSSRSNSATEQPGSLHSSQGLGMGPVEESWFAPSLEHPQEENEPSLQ
Assay: Human RIPK1 enzyme inhibitory effect (ADP-Glo Kinase Assay)
Format: biochemical
Conditions: well without enzyme = 100% inhibition; for inhibition at 10 µM: read-out: human RIPK1 enzyme inhibitory effect at 10 μM (% inhibition), 10 μM test compound; for human RIPK1 enzyme inhibitory effect at 10 μM (% inhibition): 10 μM test compound
In short: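 ADP-Glo luminescence read-out of ADP formed over 120 min at room temperature after adding 0.6 mM ATP solution (stock concentration). Compound and Sf-9-expressed, GST-purified RIPK1 (1-375) were first incubated together for 20 min in HEPES pH 7.5 buffer with MgCl2, Tween-20 and DTT.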

inhibition at 10 µM	human RIPK1 enzyme inhibitory effect at 10 μM (% inhibition)	SMILES
100%	–	CN1C(=O)[C@@H](N2CCc3c(nn(Cc4ccccc4)c3C#N)C2=O)COc2ccccc21 [Example 12, 2-benzyl-6-((3S)-5-methyl-4-oxo-2,3,4,5-tetrahydro-1,5-benzoxazepin-3-yl)-7-oxo-4,5,6,7-tetrahydro-2H-pyrazolo[3,4-c]pyridine-3-carbonitrile]
98%	–	CN1C(=O)[C@@H](N2CCc3c(nn(Cc4ccccc4)c3Cl)C2=O)COc2cc(C(=O)NC3COC3)ccc21 [Example 118, (3S)-3-(2-benzyl-3-chloro-7-oxo-2,4,5,7-tetrahydro-6H-pyrazolo[3,4-c]pyridin-6-yl)-5-methyl-N-(oxetan-3-yl)-4-oxo-2,3,4,5-tetrahydro-1,5-benzoxazepine-8-carboxamide]
–	95%	CN1C(=O)C(N2CCc3c(nn(Cc4ccccc4F)c3Cl)C2=O)CCc2nn(C)cc21 (stereo not drawn) [Example 120, 6-(3-chloro-2-(2-fluorobenzyl)-7-oxo-2,4,5,7-tetrahydro-6H-pyrazolo[3,4-c]pyridin-6-yl)-2,4-dimethyl-2,6,7,8-tetrahydropyrazolo[4,3-b]azepin-5(4H)-one]
101%	–	CN1C(=O)[C@@H](N2CCc3c(nn(Cc4ccccc4)c3Cl)C2=O)COc2cc(C(=O)NCCOCCOCCOCCNC(=O)c3ccc4c(c3)OC[C@H](N3CCc5c(nn(Cc6ccccc6)c5Cl)C3=O)C(=O)N4C)ccc21 [Example 174, (3S)-3-(2-benzyl-3-chloro-7-oxo-2,4,5,7-tetrahydro-6H-pyrazolo[3,4-c]pyridin-6-yl)-N-(13-((3S)-3-(2-benzyl-3-chloro-7-oxo-2,4,5,7-tetrahydro-6H-pyrazolo[3,4-c]pyridin-6-yl)-5-methyl-4-oxo-2,3,4,5-tetrahydro-1,5-benzoxazepin-8-yl)-13-oxo-3,6,9-trioxa-12-azatridec-1-yl)-5-methyl-4-oxo-2,3,4,5-tetrahydro-1,5-benzoxazepine-8-carboxamide]
101%	–	CN1C(=O)[C@@H](N2CCc3c(nn(Cc4cnccn4)c3Cl)C2=O)COc2ccccc21 [Example 80, (3S)-3-(3-chloro-7-oxo-2-(pyrazin-2-ylmethyl)-2,4,5,7-tetrahydro-6H-pyrazolo[3,4-c]pyridin-6-yl)-5-methyl-2,3-dihydro-1,5-benzoxazepin-4(5H)-one]
99%	–	CN1C(=O)[C@@H](N2CCc3cn(Cc4cnccn4)nc3C2=O)COc2ccccc21 [Example 42, (3S)-5-methyl-3-(7-oxo-2-(pyrazin-2-ylmethyl)-2,4,5,7-tetrahydro-6H-pyrazolo[3,4-c]pyridin-6-yl)-2,3-dihydro-1,5-benzoxazepin-4(5H)-one]
99%	–	CCOC(=O)c1c2c(nn1Cc1ccccc1)C(=O)N([C@H]1COc3ccccc3N(C)C1=O)CC2 [Example 51, ethyl 2-benzyl-6-((3S)-5-methyl-4-oxo-2,3,4,5-tetrahydro-1,5-benzoxazepin-3-yl)-7-oxo-4,5,6,7-tetrahydro-2H-pyrazolo[3,4-c]pyridine-3-carboxylate]
101%	–	CNC(=O)c1ccc2c(c1)CCC(N1CCc3c(nn(Cc4ccccc4)c3Cl)C1=O)C(=O)N2C (stereo not drawn) [Example 135, 3-(2-benzyl-3-chloro-7-oxo-2,4,5,7-tetrahydro-6H-pyrazolo[3,4-c]pyridin-6-yl)-N,1-dimethyl-2-oxo-2,3,4,5-tetrahydro-1H-1-benzazepine-7-carboxamide]
100%	–	CC(c1ccccc1)n1cc2c(n1)C(=O)N([C@H]1COc3ccccc3N(C)C1=O)CC2 (stereo partly drawn) [Example 21, (3S)-5-methyl-3-(7-oxo-2-(1-phenylethyl)-2,4,5,7-tetrahydro-6H-pyrazolo[3,4-c]pyridin-6-yl)-2,3-dihydro-1,5-benzoxazepin-4(5H)-one]
97%	–	CN1C(=O)[C@@H](N2CCc3ccc(Cc4ccccc4)nc3C2=O)COc2ccccc21 [Example 17, (3S)-3-(2-benzyl-8-oxo-5,8-dihydro-1,7-naphthyridin-7(6H)-yl)-5-methyl-2,3-dihydro-1,5-benzoxazepin-4(5H)-one]
–	101%	CNC(=O)c1ccc2c(c1)CCC(N1CCc3c(nn(Cc4ccccc4)c3Cl)C1=O)C(=O)N2C (stereo not drawn) [Example 136, 3-(2-benzyl-3-chloro-7-oxo-2,4,5,7-tetrahydro-6H-pyrazolo[3,4-c]pyridin-6-yl)-N,1-dimethyl-2-oxo-2,3,4,5-tetrahydro-1H-1-benzazepine-7-carboxamide]
100%	–	CN1C(=O)[C@@H](N2CCc3c(nn(Cc4ccccc4)c3Cl)C2=O)COc2cc(-c3ccn(C)n3)ccc21 [Example 108, (3S)-3-(2-benzyl-3-chloro-7-oxo-2,4,5,7-tetrahydro-6H-pyrazolo[3,4-c]pyridin-6-yl)-5-methyl-8-(1-methyl-1H-pyrazol-3-yl)-2,3-dihydro-1,5-benzoxazepin-4(5H)-one]
97%	–	O=C1Nc2ccccc2CCC1N1CCc2cn(Cc3ccccc3)nc2C1=O (stereo not drawn) [Example 3, 3-(2-benzyl-7-oxo-2,4,5,7-tetrahydro-6H-pyrazolo[3,4-c]pyridin-6-yl)-1,3,4,5-tetrahydro-2H-1-benzazepin-2-one]
98%	–	CN1C(=O)C(N2CCc3c(nn(Cc4ccccc4)c3Cl)C2=O)CCc2cnccc21 (stereo not drawn) [Example 98, 3-(2-benzyl-3-chloro-7-oxo-2,4,5,7-tetrahydro-6H-pyrazolo[3,4-c]pyridin-6-yl)-1-methyl-1,3,4,5-tetrahydro-2H-pyrido[4,3-b]azepin-2-one]
–	91%	CN1C(=O)C(N2CCc3c(nn(Cc4ccccc4)c3Cl)C2=O)CCc2cnccc21 (stereo not drawn) [Example 100, 3-(2-benzyl-3-chloro-7-oxo-2,4,5,7-tetrahydro-6H-pyrazolo[3,4-c]pyridin-6-yl)-1-methyl-1,3,4,5-tetrahydro-2H-pyrido[4,3-b]azepin-2-one]
95%	–	CN1C(=O)[C@@H](N2CCc3cn(Cc4cccnc4)nc3C2=O)COc2ccccc21 [Example 153, (3S)-5-methyl-3-(7-oxo-2-(pyridin-3-ylmethyl)-2,4,5,7-tetrahydro-6H-pyrazolo[3,4-c]pyridin-6-yl)-2,3-dihydro-1,5-benzoxazepin-4(5H)-one]
101%	–	CN1C(=O)[C@@H](N2CCc3cn(Cc4ccccc4F)nc3C2=O)COc2ccc(C#N)cc21 [Example 77, (3S)-3-(2-(2-fluorobenzyl)-7-oxo-2,4,5,7-tetrahydro-6H-pyrazolo[3,4-c]pyridin-6-yl)-5-methyl-4-oxo-2,3,4,5-tetrahydro-1,5-benzoxazepine-7-carbonitrile]
100%	–	CN1C(=O)[C@@H](N2CCc3cn(Cc4ccccc4F)nc3C2=O)COc2ccccc21 [Example 9, (3S)-3-(2-(2-fluorobenzyl)-7-oxo-2,4,5,7-tetrahydro-6H-pyrazolo[3,4-c]pyridin-6-yl)-5-methyl-2,3-dihydro-1,5-benzoxazepin-4(5H)-one]
93%	–	COc1ccc(Cn2c(Cc3ccccc3)nc3c2CCN([C@H]2COc4ccccc4N(C)C2=O)C3=O)cc1 [Example 54, (3S)-3-(2-benzyl-1-(4-methoxybenzyl)-4-oxo-1,4,6,7-tetrahydro-5H-imidazo[4,5-c]pyridin-5-yl)-5-methyl-2,3-dihydro-1,5-benzoxazepin-4(5H)-one]
100%	–	CN1C(=O)C(N2CCc3c(nn(Cc4c(F)cccc4F)c3Cl)C2=O)CCc2c1cnn2C (stereo not drawn) [Example 130, 6-(3-chloro-2-(2,6-difluorobenzyl)-7-oxo-2,4,5,7-tetrahydro-6H-pyrazolo[3,4-c]pyridin-6-yl)-1,4-dimethyl-4,6,7,8-tetrahydropyrazolo[4,3-b]azepin-5(1H)-one]
–	95%	CN1C(=O)C(N2CCc3c(nn(Cc4ccccc4F)c3Cl)C2=O)CCc2ccncc21 (stereo not drawn) [Example 104, 3-(3-chloro-2-(2-fluorobenzyl)-7-oxo-2,4,5,7-tetrahydro-6H-pyrazolo[3,4-c]pyridin-6-yl)-1-methyl-1,3,4,5-tetrahydro-2H-pyrido[3,4-b]azepin-2-one]
101%	–	CNC(=O)c1ccc2c(c1)OC[C@H](N1CCc3c(nn(Cc4ccccc4F)c3C)C1=O)C(=O)N2C [Example 115, (3S)-3-(2-(2-fluorobenzyl)-3-methyl-7-oxo-2,4,5,7-tetrahydro-6H-pyrazolo[3,4-c]pyridin-6-yl)-N,5-dimethyl-4-oxo-2,3,4,5-tetrahydro-1,5-benzoxazepine-8-carboxamide]
98%	–	CN1C(=O)C(N2CCc3c(nn(Cc4ccccc4)c3Cl)C2=O)CCc2c1cnn2C (stereo not drawn) [Example 126, 6-(2-benzyl-3-chloro-7-oxo-2,4,5,7-tetrahydro-6H-pyrazolo[3,4-c]pyridin-6-yl)-1,4-dimethyl-4,6,7,8-tetrahydropyrazolo[4,3-b]azepin-5(1H)-one]
–	100%	CN1C(=O)C(N2CCc3c(nn(Cc4ccccc4F)c3Cl)C2=O)CCc2c1cnn2C (stereo not drawn) [Example 131, 6-(3-chloro-2-(2-fluorobenzyl)-7-oxo-2,4,5,7-tetrahydro-6H-pyrazolo[3,4-c]pyridin-6-yl)-1,4-dimethyl-4,6,7,8-tetrahydropyrazolo[4,3-b]azepin-5(1H)-one]
